In ChEMBL document CHEMBL1212771, “BEL-2, an extended-spectrum beta-lactamase with increased activity toward expanded-spectrum cephalosporins in Pseudomonas aeruginosa” (Antimicrob Agents Chemother, 2010):
In brackets after ≈: the same amount, converted by molar mass.

Columns and labels:
Escherichia coli [1] = assay: Antimicrobial activity against Escherichia coli TOP10 by solid agar dilution method; format: functional
Pseudomonas aeruginosa [2] = assay: Antimicrobial activity against Pseudomonas aeruginosa 531 expressing beta-lactamase BEL-2 by solid agar dilution method; format: functional
Escherichia coli [3] = assay: Antimicrobial activity against Escherichia coli TOP10 expressing recombinant beta-lactamase BEL-1 by solid agar dilution method; format: functional
Escherichia coli [4] = assay: Antimicrobial activity against Escherichia coli TOP10 expressing recombinant beta-lactamase BEL-2 by solid agar dilution method; format: functional
Pseudomonas aeruginosa [5] = assay: Antimicrobial activity against Pseudomonas aeruginosa 51170 expressing beta-lactamase BEL-1 by solid agar dilution method; format: functional
Pseudomonas aeruginosa [6] = assay: Ratio of Km for Pseudomonas aeruginosa 51170 beta-lactamase BEL-1 to Km for Pseudomonas aeruginosa 531 beta-lactamase BEL-2

SMILES	MIC (Escherichia coli [1])	MIC (Pseudomonas aeruginosa [2])	MIC (Escherichia coli [3])	MIC (Escherichia coli [4])	MIC (Pseudomonas aeruginosa [5])	Ratio (Pseudomonas aeruginosa [6])
CO/N=C(\C(=O)N[C@@H]1C(=O)N2C(C(=O)O)=C(COC(C)=O)CS[C@H]12)c1csc(N)n1 [CEFOTAXIME]	0.12 µg/mL (≈ 0.263 µM)	256 µg/mL (≈ 562 µM)	4 µg/mL	32 µg/mL	32 µg/mL (≈ 70.3 µM)	
CO/N=C(\C(=O)N[C@@H]1C(=O)N2C(C(=O)[O-])=C(C[n+]3cccc4c3CCC4)CS[C@H]12)c1csc(N)n1 [CEFPIROME]	0.06 µg/mL (≈ 0.117 µM)	64 µg/mL (≈ 124 µM)	0.25 µg/mL	0.5 µg/mL	16 µg/mL (≈ 31.1 µM)	
C[C@@H](O)[C@H]1C(=O)N2C(C(=O)O)=C(SCCNC=N)C[C@H]12 [IMIPENEM ANHYDROUS]		1 µg/mL (≈ 3.34 µM)				
C[C@H]1[C@H](NC(=O)/C(=N\OC(C)(C)C(=O)O)c2csc(N)n2)C(=O)N1S(=O)(=O)O [AZTREONAM]		64 µg/mL (≈ 147 µM)	16 µg/mL	16 µg/mL	16 µg/mL (≈ 36.7 µM)	
CCN1CCN(C(=O)N[C@@H](C(=O)N[C@@H]2C(=O)N3[C@@H]2SC(C)(C)[C@@H]3C(=O)O)c2ccccc2)C(=O)C1=O [PIPERACILLIN]	1 µg/mL (≈ 1.93 µM)	16 µg/mL (≈ 30.9 µM)	128 µg/mL	32 µg/mL	16 µg/mL (≈ 30.9 µM)	
CO/N=C(\C(=O)N[C@@H]1C(=O)N2C(C(=O)[O-])=C(C[N+]3(C)CCCC3)CS[C@H]12)c1csc(N)n1		16 µg/mL (≈ 33.3 µM)	0.25 µg/mL	1 µg/mL	4 µg/mL (≈ 8.32 µM)	
CC(C)(O/N=C(\C(=O)N[C@@H]1C(=O)N2C(C(=O)[O-])=C(C[n+]3ccccc3)CS[C@H]12)c1csc(N)n1)C(=O)O [CEFTAZIDIME]	0.06 µg/mL (≈ 0.11 µM)	256 µg/mL (≈ 468 µM)	16 µg/mL	128 µg/mL	32 µg/mL (≈ 58.5 µM)	< 3
